Experimental data from the NIST ThermoML archive (doi:10.1016/j.tca.2009.06.015).
Numbers after ± are expanded uncertainties.

Assays:
[1] = xn = mol fraction of the nth substance listed; conditions: 101 kPa, Liquid; for viscosity: Capillary tube (Ostwald / Ubbelohde) method; for mass density: Vibrating tube method
[2] = refractive index (Na D-line) (dimensionless); xn = mol fraction of the nth substance listed; conditions: 101 kPa, Liquid, Standard Abbe refractometry

CCC(C)O (stereo unspecified) [butan-2-ol] + CC#N
Conditions | mass density, [1] [kg/m3] | refractive index, [2] | viscosity, [1] [mPa·s]
293.15 K, x2 = 0 | 806.57 ± 0.31 | 1.3966 ± 0.0021 | 3.912 ± 0.046
293.15 K, x2 = 0.0844 | 804.53 ± 0.31 | 1.3952 ± 0.0021 | 2.503 ± 0.031
293.15 K, x2 = 0.1644 | 802.5 ± 0.3 | 1.393 ± 0.0021 | 1.654 ± 0.019
293.15 K, x2 = 0.2516 | 800.41 ± 0.31 | 1.3899 ± 0.0021 | 1.376 ± 0.014
293.15 K, x2 = 0.3369 | 798.33 ± 0.31 | 1.386 ± 0.0021 | 1.089 ± 0.011
293.15 K, x2 = 0.4444 | 795.68 ± 0.31 | 1.3804 ± 0.0021 | 0.8564 ± 0.0088
293.15 K, x2 = 0.5382 | 793.35 ± 0.31 | 1.3751 ± 0.0021 | 0.6953 ± 0.0072
293.15 K, x2 = 0.6425 | 790.7 ± 0.3 | 1.3686 ± 0.002 | 0.5565 ± 0.0061
293.15 K, x2 = 0.761 | 788.1 ± 0.3 | 1.361 ± 0.002 | 0.4636 ± 0.0052
293.15 K, x2 = 0.8715 | 785.92 ± 0.31 | 1.3534 ± 0.002 | 0.3984 ± 0.0043
293.15 K, x2 = 0.9588 | 783.48 ± 0.31 | 1.3467 ± 0.0021 | 0.3663 ± 0.004
298.15 K, x2 = 0 | 802.56 ± 0.31 | 1.3946 ± 0.0021 | 3.132 ± 0.039
298.15 K, x2 = 0.0844 | 800.28 ± 0.31 | 1.3918 ± 0.0021 | 2.135 ± 0.024
298.15 K, x2 = 0.1644 | 798.07 ± 0.31 | 1.3893 ± 0.0021 | 1.574 ± 0.015
298.15 K, x2 = 0.2516 | 795.79 ± 0.31 | 1.3865 ± 0.0021 | 1.218 ± 0.013
298.15 K, x2 = 0.3369 | 793.63 ± 0.31 | 1.383 ± 0.0021 | 0.992 ± 0.01
298.15 K, x2 = 0.4444 | 790.96 ± 0.31 | 1.3782 ± 0.002 | 0.7937 ± 0.0082
298.15 K, x2 = 0.5382 | 788.5 ± 0.3 | 1.3734 ± 0.0021 | 0.6498 ± 0.0068
298.15 K, x2 = 0.6425 | 785.67 ± 0.31 | 1.3674 ± 0.0021 | 0.518 ± 0.0055
298.15 K, x2 = 0.761 | 782.65 ± 0.31 | 1.3597 ± 0.0021 | 0.4216 ± 0.0046
298.15 K, x2 = 0.8715 | 779.99 ± 0.31 | 1.3518 ± 0.0021 | 0.3868 ± 0.0042
298.15 K, x2 = 0.9588 | 777.71 ± 0.31 | 1.3448 ± 0.0021 | 0.3632 ± 0.004
303.15 K, x2 = 0 | 798.26 ± 0.31 | 1.3924 ± 0.0021 | 2.534 ± 0.029
303.15 K, x2 = 0.0844 | 795.95 ± 0.31 | 1.3902 ± 0.0021 | 1.794 ± 0.02
303.15 K, x2 = 0.1644 | 793.74 ± 0.31 | 1.3886 ± 0.0021 | 1.383 ± 0.015
303.15 K, x2 = 0.2516 | 791.38 ± 0.31 | 1.386 ± 0.0021 | 1.082 ± 0.011
303.15 K, x2 = 0.3369 | 789.07 ± 0.31 | 1.3829 ± 0.0021 | 0.8873 ± 0.0093
303.15 K, x2 = 0.4444 | 786.17 ± 0.31 | 1.3779 ± 0.0021 | 0.7129 ± 0.0075
303.15 K, x2 = 0.5382 | 783.62 ± 0.31 | 1.3722 ± 0.002 | 0.5936 ± 0.0063
303.15 K, x2 = 0.6425 | 780.73 ± 0.31 | 1.3656 ± 0.002 | 0.4865 ± 0.0052
303.15 K, x2 = 0.761 | 777.45 ± 0.31 | 1.3575 ± 0.002 | 0.4019 ± 0.0044
303.15 K, x2 = 0.8715 | 774.43 ± 0.31 | 1.3495 ± 0.002 | 0.3612 ± 0.0041
303.15 K, x2 = 0.9588 | 772.05 ± 0.31 | 1.3426 ± 0.002 | 0.3414 ± 0.0039
308.15 K, x2 = 0 | 793.96 ± 0.31 | 1.3905 ± 0.0021 | 2.172 ± 0.024
308.15 K, x2 = 0.0844 | 791.55 ± 0.31 | 1.3876 ± 0.0021 | 1.572 ± 0.015
308.15 K, x2 = 0.1644 | 789.27 ± 0.31 | 1.3853 ± 0.0021 | 1.213 ± 0.012
308.15 K, x2 = 0.2516 | 786.77 ± 0.31 | 1.3825 ± 0.0021 | 0.9642 ± 0.0098
308.15 K, x2 = 0.3369 | 784.37 ± 0.31 | 1.3799 ± 0.0021 | 0.8021 ± 0.0082
308.15 K, x2 = 0.4444 | 781.35 ± 0.31 | 1.3753 ± 0.0021 | 0.6524 ± 0.0068
308.15 K, x2 = 0.5382 | 778.69 ± 0.31 | 1.3713 ± 0.002 | 0.5479 ± 0.0058
308.15 K, x2 = 0.6425 | 775.68 ± 0.31 | 1.3659 ± 0.002 | 0.4533 ± 0.0048
308.15 K, x2 = 0.761 | 772.27 ± 0.31 | 1.3592 ± 0.002 | 0.379 ± 0.0041
308.15 K, x2 = 0.8715 | 768.99 ± 0.31 | 1.351 ± 0.002 | 0.3437 ± 0.0039
308.15 K, x2 = 0.9588 | 766.51 ± 0.31 | 1.3423 ± 0.002 | 0.3238 ± 0.0037

CCCCCC(C)O (stereo unspecified) [2-heptanol] + CC#N
Conditions | mass density, [1] [kg/m3] | refractive index, [2] | viscosity, [1] [mPa·s]
293.15 K, x2 = 0 | 817.18 ± 0.3 | 1.4206 ± 0.0021 | 6.52 ± 0.66
293.15 K, x2 = 0.1142 | 814.97 ± 0.3 | 1.417 ± 0.002 | 4.326 ± 0.44
293.15 K, x2 = 0.1947 | 813.16 ± 0.31 | 1.4145 ± 0.002 | 3.337 ± 0.34
293.15 K, x2 = 0.251 | 811.78 ± 0.31 | 1.4124 ± 0.002 | 2.77 ± 0.28
293.15 K, x2 = 0.3491 | 809.24 ± 0.31 | 1.4094 ± 0.002 | 2.133 ± 0.21
293.15 K, x2 = 0.4525 | 806.32 ± 0.31 | 1.4042 ± 0.002 | 1.584 ± 0.16
293.15 K, x2 = 0.5436 | 803.52 ± 0.31 | 1.3986 ± 0.002 | 1.239 ± 0.12
293.15 K, x2 = 0.6702 | 798.9 ± 0.3 | 1.3881 ± 0.002 | 0.8636 ± 0.087
293.15 K, x2 = 0.7574 | 795.18 ± 0.31 | 1.3793 ± 0.002 | 0.6732 ± 0.068
293.15 K, x2 = 0.877 | 789.27 ± 0.31 | 1.3637 ± 0.002 | –
293.15 K, x2 = 0.9588 | 784.77 ± 0.31 | 1.3516 ± 0.002 | 0.3857 ± 0.039
298.15 K, x2 = 0 | 813.33 ± 0.3 | 1.4188 ± 0.0021 | 5.33 ± 0.54
298.15 K, x2 = 0.1142 | 811.07 ± 0.31 | 1.4158 ± 0.002 | 3.583 ± 0.36
298.15 K, x2 = 0.1947 | 809.19 ± 0.31 | 1.4146 ± 0.002 | 2.821 ± 0.28
298.15 K, x2 = 0.251 | 807.74 ± 0.31 | 1.4129 ± 0.002 | 2.402 ± 0.24
298.15 K, x2 = 0.3491 | 805 ± 0.31 | 1.4094 ± 0.002 | 1.853 ± 0.19
298.15 K, x2 = 0.4525 | 802.07 ± 0.31 | 1.4039 ± 0.002 | 1.395 ± 0.14
298.15 K, x2 = 0.5436 | 799.12 ± 0.31 | 1.3979 ± 0.002 | 1.106 ± 0.11
298.15 K, x2 = 0.6702 | 794.43 ± 0.31 | 1.3873 ± 0.002 | 0.7855 ± 0.079
298.15 K, x2 = 0.7574 | 790.57 ± 0.31 | 1.3781 ± 0.002 | 0.6191 ± 0.062
298.15 K, x2 = 0.877 | 784.26 ± 0.31 | 1.3629 ± 0.002 | –
298.15 K, x2 = 0.9588 | 779.64 ± 0.31 | 1.3503 ± 0.0021 | 0.3652 ± 0.037
303.15 K, x2 = 0 | 809.44 ± 0.31 | 1.4165 ± 0.0021 | 4.301 ± 0.43
303.15 K, x2 = 0.1142 | 807.06 ± 0.31 | 1.4154 ± 0.002 | 3.03 ± 0.3
303.15 K, x2 = 0.1947 | 805.14 ± 0.31 | 1.4147 ± 0.002 | 2.409 ± 0.24
303.15 K, x2 = 0.251 | 803.62 ± 0.31 | 1.4135 ± 0.002 | 2.066 ± 0.21
303.15 K, x2 = 0.3491 | 800.93 ± 0.31 | 1.4093 ± 0.002 | 1.619 ± 0.16
303.15 K, x2 = 0.4525 | 797.79 ± 0.31 | 1.4029 ± 0.002 | 1.251 ± 0.13
303.15 K, x2 = 0.5436 | 794.69 ± 0.31 | 1.3973 ± 0.002 | 0.9893 ± 0.099
303.15 K, x2 = 0.6702 | 789.88 ± 0.31 | 1.3863 ± 0.002 | 0.7174 ± 0.072
303.15 K, x2 = 0.7574 | 786 ± 0.31 | 1.3774 ± 0.0021 | 0.5762 ± 0.058
303.15 K, x2 = 0.877 | 779.5 ± 0.31 | 1.362 ± 0.0021 | –
303.15 K, x2 = 0.9588 | 774.36 ± 0.31 | 1.3481 ± 0.0021 | 0.3483 ± 0.035
308.15 K, x2 = 0 | 805.5 ± 0.31 | 1.4143 ± 0.0021 | 3.528 ± 0.36
308.15 K, x2 = 0.1142 | 803.17 ± 0.31 | 1.4139 ± 0.0021 | 2.578 ± 0.26
308.15 K, x2 = 0.1947 | 801.12 ± 0.31 | 1.413 ± 0.0021 | 2.072 ± 0.21
308.15 K, x2 = 0.251 | 799.49 ± 0.31 | 1.4116 ± 0.0021 | 1.816 ± 0.18
308.15 K, x2 = 0.3491 | 796.53 ± 0.31 | 1.4079 ± 0.0021 | 1.466 ± 0.15
308.15 K, x2 = 0.4525 | 793.31 ± 0.31 | 1.4022 ± 0.002 | 1.112 ± 0.11
308.15 K, x2 = 0.5436 | 790.11 ± 0.31 | 1.3958 ± 0.0021 | 0.8985 ± 0.09
308.15 K, x2 = 0.6702 | 785.23 ± 0.31 | 1.3845 ± 0.0021 | 0.6625 ± 0.067
308.15 K, x2 = 0.7574 | 781.16 ± 0.31 | 1.3744 ± 0.0022 | 0.539 ± 0.054
308.15 K, x2 = 0.877 | 774.15 ± 0.31 | 1.3576 ± 0.0022 | 0.4454 ± 0.045
308.15 K, x2 = 0.9588 | 768.93 ± 0.31 | 1.3452 ± 0.0022 | 0.3326 ± 0.033
